Measurements as given in the supplement of paper PMC10307832.

Tests used:
Experiment in all cases: relative viability (nuclei count vs DMSO), 5 days (fraction); higher = more cells survive
[1] = compound: CO[C@@H]1[C@H](N(C)C(=O)c2ccccc2)C[C@H]2O[C@]1(C)n1c3ccccc3c3c4c(c5c6ccccc6n2c5c31)C(=O)NC4 [Midostaurin] + CS(=O)(=O)CCNCc1ccc(-c2ccc3ncnc(Nc4ccc(OCc5cccc(F)c5)c(Cl)c4)c3c2)o1 [Lapatinib] (partner 2 µM)
Method in brief: (§1)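 Cells from lung cancer lines were seeded into 1536-well plates and, one day later, dosed by pin tool. Treatments were either a single drug or a fixed dose of an anchor drug with five library-drug doses (not always all listed) in √10 steps. After 5 days, nuclei were stained in a one-step fixation (final 0.05% Triton X-100, 1% formaldehyde, 1 ug/ml Hoechst) and counted on 4× images, and relative viability is the treated-to-vehicle nuclei ratio, as the median of duplicate plates.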

[2] = compound: CO[C@@H]1[C@H](N(C)C(=O)c2ccccc2)C[C@H]2O[C@]1(C)n1c3ccccc3c3c4c(c5c6ccccc6n2c5c31)C(=O)NC4 [Midostaurin] + Cc1nc(NC(=O)N2CCC[C@H]2C(N)=O)sc1-c1ccnc(C(C)(C)C(F)(F)F)c1 [Alpelisib] (partner 2 µM)
Method in brief: as §1

[3] = compound: CO[C@@H]1[C@H](N(C)C(=O)c2ccccc2)C[C@H]2O[C@]1(C)n1c3ccccc3c3c4c(c5c6ccccc6n2c5c31)C(=O)NC4 [Midostaurin] + Cc1nc(Nc2ncc(C(=O)Nc3c(C)cccc3Cl)s2)cc(N2CCN(CCO)CC2)n1 [Dasatinib] (partner 0.075 µM)
Method in brief: as §1

[4] = compound: COc1cc(-c2nn([C@H]3CC[C@H](N4CCN(C(C)=O)CC4)CC3)c3ncnc(N)c23)ccc1NC(=O)c1cc2ccccc2n1C + COc1cc2c(Oc3ccc(NC(=O)C4(C(=O)Nc5ccc(F)cc5)CC4)cc3F)ccnc2cc1OCCCN1CCOCC1 [Foretinib] (partner 0.25 µM)
Method in brief: as §1

[5] = compound: COc1cc(-c2nn([C@H]3CC[C@H](N4CCN(C(C)=O)CC4)CC3)c3ncnc(N)c23)ccc1NC(=O)c1cc2ccccc2n1C + N=C(N)NC(=N)NCCc1ccccc1 [Phenformin] (partner 250 µM)
Method in brief: as §1

Cell Line | relative viability ([1]; first compound 0.01 µM) | relative viability ([1]; first compound 0.03162 µM) | relative viability ([1]; first compound 0.1 µM) | relative viability ([1]; first compound 0.3162 µM) | relative viability ([2]; first compound 0.01 µM) | relative viability ([2]; first compound 0.03162 µM) | relative viability ([2]; first compound 0.1 µM) | relative viability ([2]; first compound 0.3162 µM) | relative viability ([3]; first compound 0.01 µM) | relative viability ([3]; first compound 0.03162 µM) | relative viability ([3]; first compound 0.1 µM) | relative viability ([3]; first compound 0.3162 µM) | relative viability ([4]; first compound 0.0128 µM) | relative viability ([4]; first compound 0.04048 µM) | relative viability ([4]; first compound 0.128 µM) | relative viability ([4]; first compound 1.28 µM) | relative viability ([5]; first compound 0.0128 µM) | relative viability ([5]; first compound 0.04048 µM) | relative viability ([5]; first compound 0.128 µM) | relative viability ([5]; first compound 1.28 µM)
LOU-NH91 | 0.736 | 0.736 | 0.811 | 0.924 | 0.776 | 0.673 | 0.724 | 0.756 | 0.594 | 0.534 | 0.606 | 0.582 | 0.991 | 0.99 | 0.968 | 0.922 | 0.768 | 0.778 | 0.808 | 0.649
LU99A | 0.983 | 1.04 | 1.02 | 0.993 | 0.437 | 0.457 | 0.396 | 0.387 | 0.434 | 0.549 | 0.541 | 0.348 | 0.96 | 0.895 | 0.857 | 0.821 | 0.938 | 0.59 | 0.85 | 0.882
LXF-289 | 0.92 | 0.888 | 0.866 | 0.951 | 0.997 | 1.02 | 0.952 | 0.976 | 0.21 | 0.173 | 0.174 | 0.124 | 1.05 | 0.962 | 0.986 | 1.03 | 0.545 | 0.497 | 0.492 | 0.46
NCI-H23 | 1.05 | 1 | 1 | 0.949 | 0.739 | 0.517 | 0.339 | 0.602 | 0.88 | 0.659 | 0.559 | 0.523 | 1.22 | 1.03 | 0.797 | 0.651 | 0.765 | 0.835 | 0.805 | 0.717
NCI-H322M | 0.621 | 0.465 | 0.627 | 0.695 | 0.836 | 0.686 | 0.882 | 0.807 | 0.272 | 0.233 | 0.258 | 0.332 | 1.03 | 1.11 | 0.878 | 0.785 | 0.815 | 0.816 | 0.743 | 0.553
NCI-H358 | 0.582 | 0.391 | 0.584 | 0.499 | 0.891 | 0.719 | 0.954 | 0.768 | 0.177 | 0.124 | 0.15 | 0.208 | 0.766 | 0.626 | 0.685 | 0.279 | 0.329 | 0.283 | 0.254 | 0.187
NCI-H460 | 0.839 | 1.03 | 0.971 | 0.936 | 0.47 | 0.433 | 0.371 | 0.365 | 0.576 | 0.493 | 0.478 | 0.553 | 1 | 1.13 | 0.916 | 0.975 | 0.551 | 0.553 | 0.501 | 0.482
NCI-H520 | 0.866 | 0.942 | 0.762 | 0.781 | 0.891 | 0.882 | 0.845 | 0.981 | 0.176 | 0.178 | 0.272 | 0.203 | 0.755 | 0.731 | 0.65 | 0.613 | 0.45 | 0.521 | 0.566 | 0.425
NCI-H596 | 1.21 | 1.12 | 1.13 | 1.34 | 0.587 | 0.546 | 0.508 | 0.432 | 0.661 | 0.662 | 0.646 | 0.729 | 0.884 | 0.835 | 0.709 | 0.558 | 0.665 | 0.896 | 0.657 | 0.579
NCI-H647 | 0.932 | 1.12 | 0.768 | 0.646 | 0.948 | 1.15 | 0.861 | 0.672 | 0.181 | 0.209 | 0.134 | 0.103 | 1.16 | 1.44 | 1.21 | 0.806 | 0.526 | 0.528 | 0.428 | 0.4
NCI-H650 | 0.838 | 0.988 | 0.582 | 0.687 | 1.04 | 1.07 | 1.11 | 0.63 | 0.401 | 0.406 | 0.385 | 0.315 | 1.02 | 1.24 | 1.07 | 1.02 | 0.519 | 0.593 | 0.459 | 0.462
NCI-H661 | 0.389 | 0.449 | 0.411 | 0.384 | 0.684 | 0.601 | 0.758 | 0.661 | 0.882 | 0.806 | 0.852 | 0.737 | 1.16 | 1.13 | 1.01 | 1.03 | 0.271 | 0.273 | 0.256 | 0.261
NCI-H727 | 1.02 | 0.739 | 0.91 | 0.728 | 0.526 | 0.471 | 0.538 | 0.296 | 0.363 | 0.41 | 0.462 | 0.383 | 0.915 | – | 0.831 | 0.587 | 0.559 | – | 0.495 | 0.619
NCI-H838 | 0.955 | 0.92 | 0.897 | 0.452 | 1.02 | 0.772 | 0.865 | 0.407 | 0.237 | 0.282 | 0.292 | 0.288 | 1.01 | 0.989 | 0.973 | 0.604 | 0.694 | 0.53 | 0.509 | 0.388
NCI-H1355 | 0.979 | 0.959 | 1.08 | 1.09 | 0.827 | 0.788 | 0.748 | 0.814 | 0.796 | 0.777 | 0.743 | 0.818 | 1 | 0.958 | 0.988 | 0.883 | 0.476 | 0.401 | 0.459 | 0.41
NCI-H1395 | 1.04 | 1.12 | 0.912 | 1.3 | 1.09 | 1.08 | 1.3 | 1.22 | 0.435 | 0.38 | 0.404 | 0.403 | 0.975 | 0.95 | 0.9 | 0.72 | 0.419 | 0.461 | 0.431 | 0.395
NCI-H1437 | 0.808 | 0.848 | 0.773 | 0.882 | 1.06 | 0.995 | 0.96 | 0.986 | 0.354 | 0.458 | 0.35 | 0.368 | 1.34 | 1.31 | 1.29 | 1.29 | 0.429 | 0.303 | 0.331 | 0.287
NCI-H1563 | 0.929 | 0.97 | 0.77 | 0.924 | 1.09 | 1.07 | 0.907 | 0.78 | 0.402 | 0.469 | 0.43 | 0.465 | 0.913 | 0.997 | 0.936 | 0.685 | 0.608 | 0.635 | 0.662 | 0.617
NCI-H1651 | 0.74 | 0.931 | 0.787 | 1.05 | 1.17 | 0.92 | 0.935 | 0.902 | 0.322 | 0.488 | 0.408 | 0.446 | 0.911 | 0.886 | 0.969 | 0.692 | 0.352 | 0.329 | 0.3 | 0.31
NCI-H1666 | 0.74 | 0.617 | 0.81 | 0.634 | 1.06 | 0.788 | 0.838 | 0.732 | 0.864 | 0.709 | 0.716 | 0.772 | 0.971 | 0.881 | 0.957 | 0.947 | 0.568 | 0.567 | 0.577 | 0.537
NCI-H1734 | 1.01 | 1.1 | 1.07 | 1.12 | 0.656 | 0.618 | 0.69 | 0.742 | 0.404 | 0.632 | 0.477 | 0.338 | 0.877 | 0.683 | 0.897 | 0.536 | 0.331 | 0.297 | 0.391 | 0.379
NCI-H1755 | 1.03 | 0.976 | 0.903 | 0.917 | 0.921 | 0.912 | 0.75 | 0.694 | 0.413 | 0.447 | 0.436 | 0.343 | 1.02 | 0.87 | 0.833 | 0.885 | 0.647 | 0.547 | 0.592 | 0.614
NCI-H1793 | 0.971 | 0.715 | 0.767 | 0.75 | 0.705 | 0.601 | 0.664 | 0.662 | 0.481 | 0.38 | 0.345 | 0.362 | 0.669 | 0.809 | 0.648 | 0.406 | 0.388 | 0.252 | 0.317 | 0.289
NCI-H1915 | 0.865 | 0.972 | 0.956 | 1.04 | 1.04 | 1.02 | 1.06 | 1.06 | 0.359 | 0.334 | 0.29 | 0.331 | 1.14 | 1.03 | 1.06 | 0.844 | 0.387 | 0.396 | 0.375 | 0.334
NCI-H1944 | 0.783 | 0.794 | 0.898 | 0.977 | 0.799 | 0.908 | 0.887 | 0.946 | 0.222 | 0.227 | 0.234 | 0.222 | 0.87 | 0.786 | 0.832 | 0.61 | 0.238 | 0.198 | 0.184 | 0.165
NCI-H1975 | 0.82 | 0.893 | 0.871 | 0.665 | 0.613 | 0.628 | 0.575 | 0.38 | 0.381 | 0.374 | 0.326 | 0.296 | 0.887 | 0.912 | 0.918 | 0.481 | 0.393 | 0.392 | 0.385 | 0.254
